{"source": "paper PMC5218480", "about": "(PLoS ONE, 2017)", "test_system": "MV-4-11 cells", "experiment": "Gene expression microarray analysis (Affymetrix PrimeView) and GSEA", "assay_type": "cell-based, human", "parameters": "RFU PODN (11730768_x_at) / Fold change /veh PODN (11730768_x_at) / RFU LINC00158 (11744669_a_at) / Fold change /veh LINC00158 (11744669_a_at) / RFU DUSP10 (11751237_a_at) / Fold change /veh DUSP10 (11751237_a_at) / RFU ID3 (11757404_x_at) / Fold change /veh ID3 (11757404_x_at) / RFU PLEKHG5 (11737974_s_at) / Fold change /veh PLEKHG5 (11737974_s_at) / RFU LRRC4B (11730491_at) / Fold change /veh LRRC4B (11730491_at) / RFU GIMAP4 (11747438_a_at) / Fold change /veh GIMAP4 (11747438_a_at) / RFU KRT8 (11758183_x_at) / Fold change /veh KRT8 (11758183_x_at) / RFU CNN1 (11734310_a_at) / Fold change /veh CNN1 (11734310_a_at) / RFU VPS37D (11726825_at) / Fold change /veh VPS37D (11726825_at) / RFU C10orf10 (11716522_x_at) / Fold change /veh C10orf10 (11716522_x_at) / RFU KIR2DL2 /// KIR2DL4 /// KIR2DL5A /// KIR2DL5B /// KIR2DS1 /// KIR2DS2 /// KIR2DS3 /// KIR2DS4 /// KIR3DL3 /// KIR3DL3 /// KIR3DS1 (11738374_at) / Fold change /veh KIR2DL2 /// KIR2DL4 /// KIR2DL5A /// KIR2DL5B /// KIR2DS1 /// KIR2DS2 /// KIR2DS3 /// KIR2DS4 /// KIR3DL3 /// KIR3DL3 /// KIR3DS1 (11738374_at) / RFU C1QL1 (11718748_at) / Fold change /veh C1QL1 (11718748_at) / RFU TMPRSS4 (11747572_a_at) / Fold change /veh TMPRSS4 (11747572_a_at) / RFU HAMP (11756126_x_at) / Fold change /veh HAMP (11756126_x_at) / RFU RNFT2 (11725882_a_at) / Fold change /veh RNFT2 (11725882_a_at) / RFU NR4A2 (11747474_a_at) / Fold change /veh NR4A2 (11747474_a_at) / RFU ABCC12 (11746883_a_at) / Fold change /veh ABCC12 (11746883_a_at) / RFU TMEM136 (11760407_x_at) / Fold change /veh TMEM136 (11760407_x_at) / RFU CLDN22 /// WWC2 (11732394_at) / Fold change /veh CLDN22 /// WWC2 (11732394_at) / RFU HLA-DPB1 (11760878_x_at) / Fold change /veh HLA-DPB1 (11760878_x_at) / RFU SPINT1 (11716480_a_at) / Fold change /veh SPINT1 (11716480_a_at) / RFU GAP43 (11754022_s_at) / Fold change /veh GAP43 (11754022_s_at) / RFU A4GNT (11735810_at) / Fold change /veh A4GNT (11735810_at) / RFU PRB3 (11715151_x_at) / Fold change /veh PRB3 (11715151_x_at) / RFU TUBB4B (11761932_at) / Fold change /veh TUBB4B (11761932_at) / RFU CAPN14 (11732068_a_at) / Fold change /veh CAPN14 (11732068_a_at) / RFU TMCC2 (11721928_a_at) / Fold change /veh TMCC2 (11721928_a_at) / RFU IRGQ (11745062_a_at) / Fold change /veh IRGQ (11745062_a_at) / RFU FAM174B (11720279_a_at) / Fold change /veh FAM174B (11720279_a_at) / RFU TMPRSS4 (11748680_a_at) / Fold change /veh TMPRSS4 (11748680_a_at) / RFU FAM212B (11763350_a_at) / Fold change /veh FAM212B (11763350_a_at) / RFU PLEKHG5 (11743358_a_at) / Fold change /veh PLEKHG5 (11743358_a_at) / RFU ZSCAN30 (11745921_a_at) / Fold change /veh ZSCAN30 (11745921_a_at) / RFU CMKLR1 (11741424_a_at) / Fold change /veh CMKLR1 (11741424_a_at) / RFU LOC101060620 /// MAPK8IP1 (11723275_at) / Fold change /veh LOC101060620 /// MAPK8IP1 (11723275_at) / RFU SPTSSB (11747773_x_at) / Fold change /veh SPTSSB (11747773_x_at) / RFU PRSS12 (11739890_at) / Fold change /veh PRSS12 (11739890_at) / RFU BIN1 (11741810_x_at) / Fold change /veh BIN1 (11741810_x_at) / RFU WNT11 (11732464_a_at) / Fold change /veh WNT11 (11732464_a_at) / RFU C10orf10 (11716521_a_at) / Fold change /veh C10orf10 (11716521_a_at) / RFU C5orf56 (11738089_at) / Fold change /veh C5orf56 (11738089_at) / RFU CYB561 (11721691_x_at) / Fold change /veh CYB561 (11721691_x_at) / RFU ANKRD19P (11752326_a_at) / Fold change /veh ANKRD19P (11752326_a_at) / RFU OR2T12 /// OR2T33 /// OR2T8 (11738714_s_at) / Fold change /veh OR2T12 /// OR2T33 /// OR2T8 (11738714_s_at) / RFU VCAN (11748164_a_at) / Fold change /veh VCAN (11748164_a_at) / RFU JSRP1 (11732532_at) / Fold change /veh JSRP1 (11732532_at) / RFU KRTAP10-11 (11738290_x_at) / Fold change /veh KRTAP10-11 (11738290_x_at) / RFU MYO3A (11730013_a_at) / Fold change /veh MYO3A (11730013_a_at) / RFU EBF3 (11725865_a_at) / Fold change /veh EBF3 (11725865_a_at) / RFU CAMK2N1 (11719241_x_at) / Fold change /veh CAMK2N1 (11719241_x_at) / RFU C5orf56 (11738088_a_at) / Fold change /veh C5orf56 (11738088_a_at) / RFU OLFML3 (11715873_a_at) / Fold change /veh OLFML3 (11715873_a_at) / RFU LOC100653217 /// NTM (11731650_a_at) / Fold change /veh LOC100653217 /// NTM (11731650_a_at) / RFU MAPK11 (11762145_a_at) / Fold change /veh MAPK11 (11762145_a_at) / RFU FIZ1 (11724087_x_at) / Fold change /veh FIZ1 (11724087_x_at) / RFU OASL (11726364_x_at) / Fold change /veh OASL (11726364_x_at) / RFU SOX15 (11748057_x_at) / Fold change /veh SOX15 (11748057_x_at) / RFU CD79A (11719716_a_at) / Fold change /veh CD79A (11719716_a_at) / RFU HIST1H1D (11736915_at) / Fold change /veh HIST1H1D (11736915_at) / RFU CASKIN2 (11723855_a_at) / Fold change /veh CASKIN2 (11723855_a_at) / RFU LOC730098 (11760151_x_at) / Fold change /veh LOC730098 (11760151_x_at) / RFU OR4N2 (11742367_at) / Fold change /veh OR4N2 (11742367_at) / RFU PRRT2 (11749266_a_at) / Fold change /veh PRRT2 (11749266_a_at) / RFU SNX32 (11753110_a_at) / Fold change /veh SNX32 (11753110_a_at) / RFU CDHR5 (11726645_a_at) / Fold change /veh CDHR5 (11726645_a_at) / RFU RCAN1 (11760418_a_at) / Fold change /veh RCAN1 (11760418_a_at) / RFU FAM167A (11723789_a_at) / Fold change /veh FAM167A (11723789_a_at) / RFU FAM26E (11764081_at) / Fold change /veh FAM26E (11764081_at) / RFU ISYNA1 (11749810_s_at) / Fold change /veh ISYNA1 (11749810_s_at) / RFU ACY1 (11761880_at) / Fold change /veh ACY1 (11761880_at) / RFU 11764098_at / Fold change /veh 11764098_at / RFU SAMD14 (11745864_x_at) / Fold change /veh SAMD14 (11745864_x_at) / RFU NPB (11741838_a_at) / Fold change /veh NPB (11741838_a_at) / RFU TMPRSS6 (11731388_a_at) / Fold change /veh TMPRSS6 (11731388_a_at) / RFU KRTAP10-2 (11738614_at) / Fold change /veh KRTAP10-2 (11738614_at) / RFU ARHGAP8 /// PRR5-ARHGAP8 (11727945_x_at) / Fold change /veh ARHGAP8 /// PRR5-ARHGAP8 (11727945_x_at) / RFU KRTAP5-7 /// NADSYN1 (11734609_at) / Fold change /veh KRTAP5-7 /// NADSYN1 (11734609_at) / RFU RASL12 (11751679_a_at) / Fold change /veh RASL12 (11751679_a_at) / RFU CDKN2B (11736163_a_at) / Fold change /veh CDKN2B (11736163_a_at) / RFU PRF1 (11729649_at) / Fold change /veh PRF1 (11729649_at) / RFU, ZNF638 /// ZNF638-IT1 / Fold change vs veh, ZNF638 /// ZNF638-IT1 / RFU, PANK3 / Fold change vs veh, PANK3 / RFU, SH3YL1 / Fold change vs veh, SH3YL1 / RFU, ZEB2 / Fold change vs veh, ZEB2 / RFU, NRIP1 / Fold change vs veh, NRIP1 / RFU, PTTG1IP / Fold change vs veh, PTTG1IP / RFU, CAPN2 / Fold change vs veh, CAPN2 / RFU, MED14 / Fold change vs veh, MED14 / RFU, SNORA58 / Fold change vs veh, SNORA58 / RFU, C1orf63 / Fold change vs veh, C1orf63 / RFU, LRRFIP1 / Fold change vs veh, LRRFIP1 / RFU, NDUFAF7 / Fold change vs veh, NDUFAF7 / RFU, SLC12A2 / Fold change vs veh, SLC12A2 / RFU, IBTK / Fold change vs veh, IBTK / RFU, ESF1 / Fold change vs veh, ESF1 / Fold change vs veh, TMEM50B / RFU, TAOK1 / Fold change vs veh, TAOK1 / RFU, ACBD3 / Fold change vs veh, ACBD3 / RFU, TMA16 / Fold change vs veh, TMA16 / RFU, RWDD3 / Fold change vs veh, RWDD3 / RFU, BCAT1 / Fold change vs veh, BCAT1 / RFU, EDEM3 / Fold change vs veh, EDEM3 / RFU, TMEM33 / Fold change vs veh, TMEM33 / RFU, WDR75 / Fold change vs veh, WDR75 / RFU, AHCTF1 / Fold change vs veh, AHCTF1 / RFU, TFRC / Fold change vs veh, TFRC / RFU, ZDHHC17 / Fold change vs veh, ZDHHC17 / RFU, NOM1 / Fold change vs veh, NOM1 / RFU, ARL8B / Fold change vs veh, ARL8B / RFU, ZBTB11 / Fold change vs veh, ZBTB11 / RFU, TAMM41 / Fold change vs veh, TAMM41 / RFU, KIAA1704 /// LOC100996395 / Fold change vs veh, KIAA1704 /// LOC100996395 / RFU, ING1 / Fold change vs veh, ING1 / RFU, TRMT61B / Fold change vs veh, TRMT61B / RFU, FUBP3 / Fold change vs veh, FUBP3 / RFU, TP53 / Fold change vs veh, TP53 / RFU, TNKS2 / Fold change vs veh, TNKS2 / RFU, ZFP14 / Fold change vs veh, ZFP14 / RFU, ACTR2 / Fold change vs veh, ACTR2 / RFU, PPP3R1 / Fold change vs veh, PPP3R1 / RFU, PIK3R1 / Fold change vs veh, PIK3R1 / RFU, HNRNPA1 / Fold change vs veh, HNRNPA1 / RFU, RNF170 / Fold change vs veh, RNF170 / RFU, ZNF28 / Fold change vs veh, ZNF28 / RFU, RNGTT / Fold change vs veh, RNGTT / RFU, OGT / Fold change vs veh, OGT / RFU, BRD1 / Fold change vs veh, BRD1 / RFU, MARS / Fold change vs veh, MARS / RFU, ZNF655 / Fold change vs veh, ZNF655 / RFU, FAHD1 / Fold change vs veh, FAHD1 / RFU, BDP1 / Fold change vs veh, BDP1 / RFU, LRRCC1 / Fold change vs veh, LRRCC1 / RFU, ARID1A / Fold change vs veh, ARID1A / RFU, ZNF146 / Fold change vs veh, ZNF146 / RFU, ZNF330 / Fold change vs veh, ZNF330 / RFU, GPN3 / Fold change vs veh, GPN3 / RFU, C9orf123 / Fold change vs veh, C9orf123 / RFU, N4BP2L2 / Fold change vs veh, N4BP2L2 / RFU, ARFIP1 / Fold change vs veh, ARFIP1 / RFU, FAM179B / Fold change vs veh, FAM179B / RFU, BCL10 / Fold change vs veh, BCL10 / RFU, UHRF1BP1L / Fold change vs veh, UHRF1BP1L / RFU, BET1 / Fold change vs veh, BET1 / RFU, CNOT2 / Fold change vs veh, CNOT2 / RFU, ZNF268 / Fold change vs veh, ZNF268 / Fold change vs veh, ZNF507 / RFU, DGCR2 / Fold change vs veh, DGCR2 / RFU, WDSUB1 / Fold change vs veh, WDSUB1 / Fold change vs veh, HSP90B1 /// MIR3652 / RFU, ADSS / Fold change vs veh, ADSS / RFU, GK / Fold change vs veh, GK / RFU, ZNF148 / Fold change vs veh, ZNF148 / RFU, TAF9 / Fold change vs veh, TAF9 / RFU, SLC1A5 / Fold change vs veh, SLC1A5 / RFU, SLMO2 / Fold change vs veh, SLMO2 / RFU, ABCC4 / Fold change vs veh, ABCC4 / RFU, LOC101060439 /// RAP1B / Fold change vs veh, LOC101060439 /// RAP1B / RFU, RFX7 / Fold change vs veh, RFX7 / RFU, GTPBP10 / Fold change vs veh, GTPBP10 / RFU, CNEP1R1 / Fold change vs veh, CNEP1R1 / RFU, BIVM-ERCC5 /// ERCC5 / Fold change vs veh, BIVM-ERCC5 /// ERCC5 / RFU, ILF3 / Fold change vs veh, ILF3 / RFU 11762660_at / Fold change /veh 11762660_at / RFU VCAN (11757783_s_at) / Fold change /veh VCAN (11757783_s_at) / RFU DDX43 (11728927_at) / Fold change /veh DDX43 (11728927_at) / RFU KRT8 (11758188_x_at) / Fold change /veh KRT8 (11758188_x_at) / RFU NKD1 (11759106_at) / Fold change /veh NKD1 (11759106_at) / RFU SRD5A1 (11742802_a_at) / Fold change /veh SRD5A1 (11742802_a_at) / RFU TPSAB1 /// TPSB2 (11721975_s_at) / Fold change /veh TPSAB1 /// TPSB2 (11721975_s_at) / RFU GSTM3 (11746129_a_at) / Fold change /veh GSTM3 (11746129_a_at) / RFU IL23R (11737362_x_at) / Fold change /veh IL23R (11737362_x_at) / RFU TMEM51 (11727254_a_at) / Fold change /veh TMEM51 (11727254_a_at) / RFU PIWIL2 (11732686_x_at) / Fold change /veh PIWIL2 (11732686_x_at) / RFU ORM1 (11744905_x_at) / Fold change /veh ORM1 (11744905_x_at) / RFU CCDC152 (11743942_at) / Fold change /veh CCDC152 (11743942_at) / RFU ECM1 (11717891_a_at) / Fold change /veh ECM1 (11717891_a_at) / RFU IL23R (11748794_a_at) / Fold change /veh IL23R (11748794_a_at) / RFU TNFAIP8L3 (11732012_x_at) / Fold change /veh TNFAIP8L3 (11732012_x_at) / RFU MBOAT4 (11741988_at) / Fold change /veh MBOAT4 (11741988_at) / RFU 11764193_at / Fold change /veh 11764193_at / RFU TMEM53 (11763286_at) / Fold change /veh TMEM53 (11763286_at) / RFU MAGEB2 (11727129_at) / Fold change /veh MAGEB2 (11727129_at) / RFU TMEM200A (11744735_a_at) / Fold change /veh TMEM200A (11744735_a_at) / RFU CCDC152 (11751479_a_at) / Fold change /veh CCDC152 (11751479_a_at) / RFU FAM211A (11726209_a_at) / Fold change /veh FAM211A (11726209_a_at) / RFU RGS16 (11746705_a_at) / Fold change /veh RGS16 (11746705_a_at) / RFU VCAN (11755009_s_at) / Fold change /veh VCAN (11755009_s_at) / RFU RHOB (11743442_s_at) / Fold change /veh RHOB (11743442_s_at) / RFU RGS16 (11720943_a_at) / Fold change /veh RGS16 (11720943_a_at) / RFU RGS16 (11720944_at) / Fold change /veh RGS16 (11720944_at) / RFU, VPS4B / Fold change vs veh, VPS4B / RFU, CREB1 / Fold change vs veh, CREB1 / RFU, DNAJC13 / Fold change vs veh, DNAJC13 / RFU, GNAQ / Fold change vs veh, GNAQ / RFU, CDK5R1 / Fold change vs veh, CDK5R1 / RFU, ZRANB3 / Fold change vs veh, ZRANB3 / RFU, CUL4A / Fold change vs veh, CUL4A / RFU, CCNY / Fold change vs veh, CCNY / RFU, UFL1 / Fold change vs veh, UFL1 / RFU, COG3 / Fold change vs veh, COG3 / RFU, DIAPH2 / Fold change vs veh, DIAPH2 / RFU, SKA2 / Fold change vs veh, SKA2 / RFU, AFF3 / Fold change vs veh, AFF3 / RFU, LMF1 / Fold change vs veh, LMF1 / RFU, IPO11 / Fold change vs veh, IPO11 / RFU, DFFB / Fold change vs veh, DFFB / RFU, FOXP1 / Fold change vs veh, FOXP1 / RFU, CARD8 / Fold change vs veh, CARD8 / RFU, STRN3 / Fold change vs veh, STRN3 / RFU, ADK / Fold change vs veh, ADK / RFU, RASSF2 / Fold change vs veh, RASSF2 / RFU, WIPF1 / Fold change vs veh, WIPF1 / RFU, LARP1B / Fold change vs veh, LARP1B / RFU, RASA1 / Fold change vs veh, RASA1 / RFU, RB1 / Fold change vs veh, RB1 / RFU, PPFIA1 / Fold change vs veh, PPFIA1 / RFU, MAT2A / Fold change vs veh, MAT2A / RFU, CCT5 / Fold change vs veh, CCT5 / RFU, WDR92 / Fold change vs veh, WDR92 / RFU, CUX1 / Fold change vs veh, CUX1 / RFU, TTC7A / Fold change vs veh, TTC7A / RFU, TMEM135 / Fold change vs veh, TMEM135 / RFU, DEPTOR / Fold change vs veh, DEPTOR / RFU, CPM / Fold change vs veh, CPM / RFU, DNAJB6 / Fold change vs veh, DNAJB6 / RFU, CACNA2D3 / Fold change vs veh, CACNA2D3 / RFU, DTX4 / Fold change vs veh, DTX4 / RFU, TFCP2 / Fold change vs veh, TFCP2 / RFU, GMCL1 /// GMCL1P1 / Fold change vs veh, GMCL1 /// GMCL1P1 / RFU, AEBP2 / Fold change vs veh, AEBP2 / RFU, SNHG1 /// SNORD22 /// SNORD25 /// SNORD26 /// SNORD27 /// SNORD28 /// SNORD29 /// SNORD31 / Fold change vs veh, SNHG1 /// SNORD22 /// SNORD25 /// SNORD26 /// SNORD27 /// SNORD28 /// SNORD29 /// SNORD31 / Fold change (Aza/veh), C12orf56 (ProbeSet 11735607_a_at) / Fold change (ACY-1035/veh), C12orf56 (ProbeSet 11735607_a_at) / Fold change (Aza/veh), FGFR1OP (ProbeSet 11751329_s_at) / Fold change (ACY-1035/veh), FGFR1OP (ProbeSet 11751329_s_at) / Fold change (Aza/veh), VPS36 (ProbeSet 11739960_a_at) / Fold change (ACY-1035/veh), VPS36 (ProbeSet 11739960_a_at) / RFU SYPL1 (11715823_x_at) / Fold change /veh SYPL1 (11715823_x_at) / RFU IGFBP7 (11715501_s_at) / Fold change /veh IGFBP7 (11715501_s_at) / RFU REEP3 (11722064_at) / Fold change /veh REEP3 (11722064_at) / RFU IGLL1 (11728026_x_at) / Fold change /veh IGLL1 (11728026_x_at): dose or concentration left out as unconfirmed", "conditions": "MV-4-11 cells, 48 hours", "data": [{"smiles": "Nc1ncn([C@@H]2O[C@H](CO)[C@@H](O)[C@H]2O)c(=O)n1", "note": "[azacitidine]", "values": [{"measurement": "RFU JSRP1 (11732532_at)", "result": 47.93, "unit": "RFU"}]}]}
